Measured values published in patent US11524968B2, “Heterocyclic compound as a protein kinase inhibitor” (HK inno.N Corporation, priority 2017, dated 2022).
pIC50: −log10 of the molar value.

Biological target: JAK1 (Homo sapiens (Human), UniProt P23458)
Test: Analysis of JAK1 activity inhibition ability (ADP-Glo Kinase Assay)
Assay type: biochemical
Details: JAK1 enzyme, ADP-Glo luminescence, ATP 250 uM, IRS-itide substrate, 30° C. 40 minutes; read-out: IC50
Outline: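 JAK1 enzyme, IRS-itide substrate (40 ng/mL) and 250 uM ATP, both as prepared in kinase buffer (Tris-HCl pH 7.5, MgCl2, BSA, DTT), reacted with compound 40 min at 30 °C. ADP formed was detected by ADP-Glo luminescence; IC50 is the concentration giving 50% inhibition versus control.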

JAK1, sequence (P23458 whole entry): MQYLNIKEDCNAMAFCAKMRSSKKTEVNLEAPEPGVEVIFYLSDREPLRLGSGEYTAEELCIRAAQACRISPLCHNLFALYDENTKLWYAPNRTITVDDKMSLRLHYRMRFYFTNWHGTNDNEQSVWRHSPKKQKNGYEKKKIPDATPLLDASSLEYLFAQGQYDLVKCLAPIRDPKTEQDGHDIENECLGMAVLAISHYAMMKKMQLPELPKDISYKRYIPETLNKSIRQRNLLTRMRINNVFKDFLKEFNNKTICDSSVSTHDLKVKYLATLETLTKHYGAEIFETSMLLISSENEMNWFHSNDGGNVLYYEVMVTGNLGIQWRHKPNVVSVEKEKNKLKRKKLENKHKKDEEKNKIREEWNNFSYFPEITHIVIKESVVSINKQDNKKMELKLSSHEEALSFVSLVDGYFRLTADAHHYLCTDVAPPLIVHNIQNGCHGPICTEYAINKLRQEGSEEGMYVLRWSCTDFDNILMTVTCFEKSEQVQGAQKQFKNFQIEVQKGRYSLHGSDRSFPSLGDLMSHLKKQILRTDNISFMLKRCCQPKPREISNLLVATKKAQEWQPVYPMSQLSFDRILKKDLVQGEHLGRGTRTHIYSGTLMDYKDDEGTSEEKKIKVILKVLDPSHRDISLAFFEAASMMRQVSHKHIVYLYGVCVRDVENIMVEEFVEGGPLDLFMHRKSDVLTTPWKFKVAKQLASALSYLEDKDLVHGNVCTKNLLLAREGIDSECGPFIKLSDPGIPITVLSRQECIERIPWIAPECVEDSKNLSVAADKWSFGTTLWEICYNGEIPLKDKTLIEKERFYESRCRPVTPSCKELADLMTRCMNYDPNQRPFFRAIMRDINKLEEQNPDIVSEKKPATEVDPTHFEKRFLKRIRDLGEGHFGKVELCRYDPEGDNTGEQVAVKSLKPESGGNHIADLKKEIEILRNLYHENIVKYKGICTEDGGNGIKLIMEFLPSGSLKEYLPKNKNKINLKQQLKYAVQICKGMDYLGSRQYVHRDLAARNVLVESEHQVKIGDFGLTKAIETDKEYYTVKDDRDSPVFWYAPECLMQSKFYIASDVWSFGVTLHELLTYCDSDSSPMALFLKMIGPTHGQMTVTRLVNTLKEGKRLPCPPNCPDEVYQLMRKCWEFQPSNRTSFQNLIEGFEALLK

Compound	pIC50
N#CC1(CS(=O)(=O)Nc2c(F)cc(-c3cc(NC(=O)C4CC4)nc4[nH]ccc34)cc2F)CC1 [Example 107, N-(4-(4-(((1-cyanocyclopropyl)methyl)sulfonamido)-3,5-difluorophenyl)-1H-pyrrolo[2,3-b]pyridin-6-yl)cyclopropanecarboxamide]	6.70 to 7.70
Cc1cc(NS(=O)(=O)CC2(C#N)CC2)ccc1-c1cc(NC(=O)C2CC2)nc2[nH]ccc12 [Example 102, N-(4-(4-(((1-cyanocyclopropyl)methyl)sulfonamido)-2-methylphenyl)-1H-pyrrolo[2,3-b]pyridin-6-yl)cyclopropanecarboxamide]	> 7.70
CCC1CN(C(=O)OC(C)(C)C)CC=C1c1cc(NC(=O)C2CC2)nc2[nH]ccc12 (stereo not drawn) [Example 458, tert-butyl 4-(6-(cyclopropanecarboxamido)-1H-pyrrolo[2,3-b]pyridin-4-yl)-3-ethyl-3,6-dihydropyridine-1 (2H)-carboxylate]	< 6.70
O=C(Nc1ccc(-c2nc(NC(=O)C3CC3)nc3[nH]ccc23)cc1)Nc1ccc(F)c(F)c1 [Example 440, N-(4-(4-(3-(3,4-difluorophenyl)ureido)phenyl)-7H-pyrrolo[2,3-d]pyrimidin-2-yl)cyclopropanecarboxamide]	6.70 to 7.70
CCc1cc(-c2cc(NC(=O)C3CC3)nc3[nH]ccc23)ccc1NS(=O)(=O)CC1(C#N)CC1 [Example 123, N-(4-(4-(((1-cyanocyclopropyl)methyl)sulfonamido)-3-ethylphenyl)-1H-pyrrolo[2,3-b]pyridin-6-yl)cyclopropanecarboxamide]	> 7.70
N#CC1CN(C(=O)Cc2ccc(-c3cc(NC(=O)C4CC4)nc4[nH]ccc34)cc2)C1 [Example 568, N-(4-(4-(2-(3-cyanoazetidin-1-yl)-2-oxoethyl)phenyl)-1H-pyrrolo[2,3-b]pyridin-6-yl)cyclopropanecarboxamide]	6.70 to 7.70
O=C(Nc1cc(-c2ccc(NS(=O)(=O)Cc3ccc(F)cc3)cc2)c2cc[nH]c2n1)C1CC1 [Example 36, N-(4-(4-(((4-fluorophenyl)methyl)sulfonamido)phenyl)-1H-pyrrolo[2,3-b]pyridin-6-yl)cyclopropanecarboxamide]	> 7.70
CC1CN(C(=O)c2cccc(F)c2F)CC=C1c1cc(NC(=O)C2CC2)nc2[nH]ccc12 (stereo not drawn) [Example 378, N-(4-(1-(2,3-difluorobenzoyl)-3-methyl-1,2,3,6-tetrahydropyridin-4-yl)-1H-pyrrolo[2,3-b]pyridin-6-yl)cyclopropanecarboxamide]	> 7.70
CCS(=O)(=O)Nc1ccc(-c2cc(NC(=S)C3CC3)nc3[nH]ccc23)cc1 [Example 715, N-(4-(4-(ethylsulfonamido)phenyl)-1H-pyrrolo[2,3-b]pyridin-6-yl)cyclopropanecarbothioamide]	6.70 to 7.70
N#Cc1ccc(S(=O)(=O)NC2CC=C(c3cc(NC(=O)C4CC4)nc4[nH]ccc34)CC2)cc1 (stereo not drawn) [Example 164, N-(4-(4-((4-cyanophenyl)sulfonamido)cyclohex-1-en-1-yl)-1H-pyrrolo[2,3-b]pyridin-6-yl)cyclopropanecarboxamide]	> 7.70
N#CCC(=O)N1C2CCC1CN(c1nc(NC(=O)C3CC3)nc3[nH]ccc13)C2 [Example 688, (N-(4-(8-(2-cyanoacetyl)-3,8-diazabicyclo[3.2.1]octan-3-yl)-7H-pyrrolo[2,3-d]pyrimidin-2-yl)cyclopropanecarboxamide)]	6.70 to 7.70
CC1=C(c2cc(NC(=O)C3CC3)nc3[nH]ccc23)CCN(C(=O)CC#N)C1 [Example 296, N-(4-(1-(2-cyanoacetyl)-5-methyl-1,2,3,6-tetrahydropyridin-4-yl)-1H-pyrrolo[2,3-b]pyridin-6-yl)cyclopropanecarboxamide]	6.70 to 7.70
O=C(Nc1cc(-c2ccc(NC3CCN(C(=O)Nc4ccc(F)cc4F)CC3)cc2)c2cc[nH]c2n1)C1CC1 [Example 511, 4-((4-(6-(cyclopropanecarboxamido)-1H-pyrrolo[2,3-b]pyridin-4-yl)phenyl)amino)-N-(2,4-difluorophenyl)piperidine-1-carboxamide]	6.70 to 7.70
CN(c1ccc(-c2nc(NC(=O)C3CC3)nc3[nH]ccc23)cc1)S(=O)(=O)c1ccc(F)c(F)c1 [Example 193, N-(4-(4-((3,4-difluoro-N-methylphenyl)sulfonamido)phenyl)-7H-pyrrolo[2,3-d]pyrimidin-2-yl)cyclopropanecarboxamide]	< 6.70
CCc1cc(NS(=O)(=O)C2CC2)ccc1-c1cc(NC(=O)C2CC2)nc2[nH]ccc12 [Example 113, N-(4-(4-(cyclopropanesulfonamido)-2-ethylphenyl)-1H-pyrrolo[2,3-b]pyridin-6-yl)cyclopropanecarboxamide]	> 7.70
N#CCC(=O)N1[C@@H]2CC[C@H]1C=C(c1cc(NC(=O)C3CC3)nc3[nH]ccc13)C2 [Example 262, N-(4-((1S,5R)-8-(2-cyanoacetyl)-8-azabicyclo[3.2.1]oct-2-en-3-yl)-1H-pyrrolo[2,3-b]pyridin-6-yl)cyclopropanecarboxamide]	6.70 to 7.70
CCCS(=O)(=O)Nc1ccc(-c2cc(NC(=O)C3CC3)nc3[nH]cc(C)c23)cc1 [Example 94, N-(3-methyl-4-(4-(propylsulfonamido)phenyl)-1H-pyrrolo[2,3-b]pyridin-6-yl)cyclopropanecarboxamide]	6.70 to 7.70

Compound	pIC50
CCCCOc1ccc(-c2cc(NC(=O)C3CC3)nc3[nH]ccc23)cc1 [Example 643, N-(4-(4-butoxyphenyl)-1H-pyrrolo[2,3-b]pyridin-6-yl)cyclopropanecarboxamide]	< 6.70
CCc1cc(NS(=O)(=O)CC)ccc1-c1cc(NC(=O)C2CC2)nc2[nH]ccc12 [Example 99, N-(4-(2-ethyl-4-(ethylsulfonamido)phenyl)-1H-pyrrolo[2,3-b]pyridin-6-yl)cyclopropanecarboxamide]	> 7.70
N#CCC(=O)N1CC2CCC(C1)N2c1cc(NC(=O)C2CC2)nc2[nH]ccc12 [Example 678, N-(4-(3-(2-cyanoacetyl)-3,8-diazabicyclo[3.2.1]octan-8-yl)-1H-pyrrolo[2,3-b]pyridin-6-yl)cyclopropanecarboxamide]	6.70 to 7.70
O=C(Nc1cc(-c2ccc(CC(=O)N3CCS(=O)(=O)CC3)cc2)c2cc[nH]c2n1)C1CC1 [Example 535, N-(4-(4-(2-(1,1-dioxidothiomorpholino)-2-oxoethyl)phenyl)-1H-pyrrolo[2,3-b]pyridin-6-yl)cyclopropanecarboxamide]	6.70 to 7.70
CCS(=O)(=O)N1CC(CC#N)(N2CCN(c3cc(NC(=O)C4CC4)nc4[nH]ccc34)CC2)C1 [Example 700, N-(4-(4-(3-(cyanomethyl)-1-(ethylsulfonyl)azetidin-3-yl)piperazin-1-yl)-1H-pyrrolo[2,3-b]pyridin-6-yl)cyclopropanecarboxamide]	< 6.70
O=C(Nc1cc(-c2ccc(OS(=O)(=O)CC3CCOC3)cc2)c2cc[nH]c2n1)C1CC1 (stereo not drawn) [Example 638, 4-(6-(cyclopropanecarboxamido)-1H-pyrrolo[2,3-b]pyridin-4-yl)phenyl (tetrahydrofuran-3-yl)methanesulfonate]	6.70 to 7.70
CC1CN(C(=O)c2ccnc(C(F)(F)F)c2)CC=C1c1cc(NC(=O)C2CC2)nc2[nH]ccc12 (stereo not drawn) [Example 384, N-(4-(3-methyl-1-(2-(trifluoromethyl)isonicotinoyl)-1,2,3,6-tetrahydropyridin-4-yl)-1H-pyrrolo[2,3-b]pyridin-6-yl)cyclopropanecarboxamide]	6.70 to 7.70
CCCS(=O)(=O)N1CCN(C(=O)Cc2ccc(-c3cc(NC(=O)C4CC4)nc4[nH]ccc34)cc2)CC1 [Example 564, N-(4-(4-(2-oxo-2-(4-(propylsulfonyl)piperazin-1-yl)ethyl)phenyl)-1H-pyrrolo[2,3-b]pyridin-6-yl)cyclopropanecarboxamide]	6.70 to 7.70
CCS(=O)(=O)Nc1ccc(-c2cc(NC(=O)C3CC3)nc3[nH]ccc23)c(F)c1 [Example 30, N-(4-(4-(ethylsulfonamido)-2-fluorophenyl)-1H-pyrrolo[2,3-b]pyridin-6-yl)cyclopropanecarboxamide]	> 7.70
CCS(=O)(=O)Oc1ccc(-c2cc(NC(=O)C3CC3)nc3[nH]ccc23)cc1 [Example 629, 4-(6-(cyclopropanecarboxamido)-1H-pyrrolo[2,3-b]pyridin-4-yl)phenyl ethanesulfonate]	6.70 to 7.70
Cc1cc(NS(=O)(=O)CCCC(F)(F)F)ccc1-c1cc(NC(=O)C2CC2)nc2[nH]ccc12 [Example 117, N-(4-(2-methyl-4-((4,4,4-trifluorobutyl)sulfonamido)phenyl)-1H-pyrrolo[2,3-b]pyridin-6-yl)cyclopropanecarboxamide]	> 7.70
N#CCCC(=O)N1C[C@H]2C[C@@H]1CN2c1cc(NC(=O)C2CC2)nc2[nH]ccc12 [Example 682, N-(4-((1R,4R)-5-(3-cyanopropanoyl)-2,5-diazabicyclo[2.2.1]heptan-2-yl)-1H-pyrrolo[2,3-b]pyridin-6-yl)cyclopropanecarboxamide]	< 6.70
N#CCC(=O)N1CC=C(c2cc(NC(=O)C3CC3)nc3[nH]ccc23)CC12CCC2 [Example 414, N-(4-(5-(2-cyanoacetyl)-5-azaspiro[3.5]non-7-en-8-yl)-1H-pyrrolo[2,3-b]pyridin-6-yl)cyclopropanecarboxamide]	> 7.70
CCS(=O)(=O)N1C2C=C(c3cc(NC(=O)C4CC4)nc4[nH]ccc34)CC1CC2 (stereo not drawn) [Example 174, N-(4-(8-(ethylsulfonyl)-8-azabicyclo[3.2.1]oct-2-en-3-yl)-1H-pyrrolo[2,3-b]pyridin-6-yl)cyclopropanecarboxamide]	6.70 to 7.70
N#CCC(=O)c1ccc(-c2cc(NC(=O)C3CC3)nc3[nH]ccc23)cc1 [Example 519, N-(4-(4-(2-cyanoacetyl)phenyl)-1H-pyrrolo[2,3-b]pyridin-6-yl)cyclopropanecarboxamide]	< 6.70
N#CCOC(=O)N1CC=C(c2cc(NC(=O)C3CC3)nc3[nH]ccc23)CC1 [Example 455, cyanomethyl 4-(6-(cyclopropanecarboxamido)-1H-pyrrolo[2,3-b]pyridin-4-yl)-3,6-dihydropyridine-1 (2H)-carboxylate]	> 7.70
